Test results published in PMC4721062, “Oxadiazole-2-oxides may have other functional targets, in addition to SjTGR, through which they cause mortality in Schistosoma japonicum” (Parasites & Vectors, 2016).
Read-outs that look alike come from different tables or passages of the source.

What was measured:
juvenile S. japonicum = assay: microbe, parasite or virus in culture; format: cell-based; details: for killing at 2 µM / killing at 5 µM / killing at 50 µM / Killing activity 24hr / Killing activity 48hr / Killing activity 72hr: juvenile worms; for Killing activity 24hr / Killing activity 48hr / Killing activity 72hr: 10 μM
Description: Infected Oncomelania hupensis, provided by the Department of Snail Biology, Jiangsu Institute of Parasitic Diseases, were incubated at 25–28 °C, under illumination, for 2 h to hatch S. japonicum cercariae. The cercariae were collected from the water surface with clean cover glass and placed into a centrifuge tube using pre cooled RPMI 1640. Centrifugation was performed for 1 min at 1500 rpm, and then the steps above were repeated. After centrifugation, the supernatant solution was removed. The cercariae at the bottom were washed twice and resuspended with RPMI 1640. Approximately 20–30 cercariae (1 mL of the resuspension medium) were added to one well in a 24-well culture plate. They were incubated overnight at 37 °C with 5 % CO2. The survival rates and number of tails shed were observed under an inverted microscope. Cercariae that had shed their tails were used as juvenile S. japonicum.
20–30 juvenile worms were transferred into each well of a 24-well culture plate, containing 2 mL RPMI 1640 medium, 20 mM HEPES, 100 IU/mL penicillin, […] streptomycin and 10 % fetal bovine serum. Then, oxadiazole-2-oxides (2, 5, 10, and 50 μM), diluted with the RPMI 1640 medium, were added to their allocated wells. The worms in the negative control wells were treated with equal volumes of RPMI 1640 or DMSO and worms treated with AS were observed as positive controls. The juvenile worms’ survival rates were observed under an inverted phase contrast microscope (Leica, Wetzlar, Germany) at 24, 48 and 72 h. Parasite death was defined as an unclear internal structure of the juvenile worms, with incomplete tegument and contents overflowing radially, or unclear internal structure with complete tegument, but having no motor activity during 1 min of continuous observation. All assays were repeated three times.
^b Data collected by visual examination of worm movement and shape; % D = The number of worms dead / The total number of worms observed, and worms dead judged by unclear internal structure of juvenile worms with uncompleted tegument, and contents overflowing radially, or unclear internal structure with complete tegument, but having no motor activity during 1 min of continuous observation. The data presented are the average of three independent experiments.

recombinant SjTGR = target: T1, recombinant SjTGR (Schistosoma japonicum, UniProt B5THG7); assay: Inhibition of TrxR activity of recombinant SjTGR (DTNB assay); format: biochemical; details: 50 nM SjTGR, 1 mM NADPH, 15 min preincubation, DTNB reduction; read-out: IC50 of SjTGR
T1 sequence (B5THG7 1-596): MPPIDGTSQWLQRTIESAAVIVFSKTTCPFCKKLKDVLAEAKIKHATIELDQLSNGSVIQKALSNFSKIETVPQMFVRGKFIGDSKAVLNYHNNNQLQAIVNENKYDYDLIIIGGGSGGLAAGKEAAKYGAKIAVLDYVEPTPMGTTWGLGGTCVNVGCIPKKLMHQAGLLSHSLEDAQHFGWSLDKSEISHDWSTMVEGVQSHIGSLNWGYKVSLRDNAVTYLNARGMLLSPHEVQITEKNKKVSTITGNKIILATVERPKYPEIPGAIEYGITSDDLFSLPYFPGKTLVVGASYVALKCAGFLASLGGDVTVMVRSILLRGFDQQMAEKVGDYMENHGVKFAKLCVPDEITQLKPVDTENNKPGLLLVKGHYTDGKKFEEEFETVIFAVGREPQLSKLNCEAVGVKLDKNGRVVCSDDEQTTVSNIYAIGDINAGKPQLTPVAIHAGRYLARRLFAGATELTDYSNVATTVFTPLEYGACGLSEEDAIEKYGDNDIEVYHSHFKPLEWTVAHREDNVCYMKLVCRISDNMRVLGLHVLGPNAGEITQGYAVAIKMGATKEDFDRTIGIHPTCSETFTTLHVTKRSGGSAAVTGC
Description: The purified recombinant SjTGR proteins were produced according to the method described by Song et al.. The inhibition of TrxR activity by the recombinant SjTGR was performed as reported by Rai et al.. Briefly, 50 nM SjTGR and 1 mM NADPH were incubated with different concentrations of oxadiazole-2-oxides (2, 4, 6, 10, 20 μM) for 15 min at room temperature. Then, potassium phosphate buffer (pH 7.4) containing 10 mM EDTA, 100 μM NADPH, and 3 mM DTNB was added to start the reaction. The increase of absorbance at 412 nm was monitored during the first 2 min. All assays were done in triplicate.
50 nM SjTGR and 1 mM NADPH were incubated with different concentrations of oxadiazole-2-oxides (2, 4, 6, 10, 20 μM) for 15 min at room temperature. Then, potassium phosphate buffer (pH 7.4) containing 10 mM EDTA, 100 μM NADPH, 3 mM DTNB was added to start the reaction. The increase in absorbance at 412 nm was monitored during the first 2 min. All assays were done in triplicate. Results shown are the mean ± SD (n = 3)

adult S. japonicum = assay: microbe, parasite or virus in culture; format: cell-based; details: for killing at 100 µM / Killing activity 24hr / Killing activity 48hr / Killing activity 72hr / killing at 25 µM / killing at 50 µM: adult worms
Source text: ICR mice (20–22 g), were obtained from the Shanghai Sub-Center of Experimental Animals, Chinese Academy of Sciences. They were maintained at the Department of Experimental Animals, Jiangsu Institute of Parasitic Diseases. To infect each mouse, its abdominal skin was exposed to 50 S. japonica cercariae. All of the mice were executed to collect S. japonica adult worms, through portal vein perfusion, 35 days post-infection. The adult S. japonica collected were washed with RPMI 1640 medium and then kept in RPMI 1640 medium (pH 7.5) with HEPES 20 mM, penicillin (100 IU/mL), streptomycin ([…]) and 10 % fetal bovine serum. Then, two pairs of adult worms were transferred into each well of a 24-well culture plate, with 2 mL of the same medium. The worms were cultured at 37 °C in a humid atmosphere with 5 % CO2.
Adult worms were cultured in a 24-well culture plate for 30–60 min at 37 °C, in a humid atmosphere with 5 % CO2. Then, oxadiazole-2-oxides at different concentrations (10, 25, 50, 100 μM) were added. Equal volumes of RPMI 1640 or DMSO were applied as negative controls, while PZQ was applied as a positive control. The adult worm mobility and parasite survival rates were monitored using an inverted phase contrast microscope, at 24, 48 and 72 h. Parasite death was defined as there being no motor activity during 2 min of continuous observation, and morphological and tegumental alterations. All assays were repeated three times.
^b Data collected by visual examination of worm movement and shape; n.e. […] The data presented are the average of three independent experiments.

[1] = Schistosoma japonicum, 24 h, read-out: Killing activity 24hr
[2] = Schistosoma japonicum, 48 h, read-out: Killing activity 48hr
[3] = Schistosoma japonicum, 72 h, read-out: Killing activity 72hr

SMILES	killing at 2 µM (juvenile S. japonicum; [1]) [%]	killing at 2 µM (juvenile S. japonicum; [2]) [%]	killing at 2 µM (juvenile S. japonicum; [3]) [%]	killing at 5 µM (juvenile S. japonicum; [1]) [%]	killing at 5 µM (juvenile S. japonicum; [2]) [%]	killing at 5 µM (juvenile S. japonicum; [3]) [%]	killing at 50 µM (juvenile S. japonicum; [1]) [%]	killing at 50 µM (juvenile S. japonicum; [2]) [%]	killing at 50 µM (juvenile S. japonicum; [3]) [%]	Killing activity 24hr (juvenile S. japonicum; 24 h) [%D]	Killing activity 48hr (juvenile S. japonicum; 48 h) [%D]	Killing activity 72hr (juvenile S. japonicum; 72 h) [%D]	IC50 (recombinant SjTGR) [µM]	killing at 100 µM (adult S. japonicum; [1]) [%]	killing at 100 µM (adult S. japonicum; [2]) [%]	killing at 100 µM (adult S. japonicum; [3]) [%]	Killing activity 24hr (adult S. japonicum; 10 μM, 24 h)	Killing activity 48hr (adult S. japonicum; 10 μM, 48 h)	Killing activity 72hr (adult S. japonicum; 10 μM, 72 h)	other results
[O-][n+]1onc(-c2ccc(Br)cc2)c1CO [Compound 4c]	15	20	20	24.5	24.5	26.4	25.8	25.8	51.6	7.1	14.3	17.9	8.6	57.1	71.4	71.4	n.e.	n.e.	n.e.	mortality at 50 µM (juvenile S. japonicum; Schistosoma japonicum, 24 h, read-out: Mortality of juvenile worms): < 30%; mortality at 100 µM (adult S. japonicum; Schistosoma japonicum, read-out: Mortality of adult worms): 57.1 ± 2.3%; Killing activity 24hr (adult S. japonicum; 25 μM, 24 h): n.e.; Killing activity 48hr (adult S. japonicum; 25 μM, 48 h): n.e.; Killing activity 72hr (adult S. japonicum; 25 μM, 72 h): n.e.; Killing activity 24hr (adult S. japonicum; 50 μM, 24 h): n.e.; Killing activity 48hr (adult S. japonicum; 50 μM, 48 h): n.e.; Killing activity 72hr (adult S. japonicum; 50 μM, 72 h): n.e.
N#Cc1c(-c2ccc(OCCCCBr)cc2)no[n+]1[O-] [Compound 14]	21.6	31.1	35.1	26.4	33.3	38.9	46.4	66.4	80	30.4	69.6	69.6	15.5	100	100	100	33.3%D	44.4%D	77.8%D	mortality at 25 µM (adult S. japonicum; Schistosoma japonicum, 24 h, read-out: Mortality of adult worms): > 75%; killing at 25 µM (adult S. japonicum; Schistosoma japonicum, 25 μM, 24 h, read-out: Killing activity 24hr): 75%; killing at 25 µM (adult S. japonicum; Schistosoma japonicum, 25 μM, 48 h, read-out: Killing activity 48hr): 87.5%; killing at 25 µM (adult S. japonicum; Schistosoma japonicum, 25 μM, 72 h, read-out: Killing activity 72hr): 100%; killing at 50 µM (adult S. japonicum; Schistosoma japonicum, 50 μM, 24 h, read-out: Killing activity 24hr): 100%; killing at 50 µM (adult S. japonicum; Schistosoma japonicum, 50 μM, 48 h, read-out: Killing activity 48hr): 100%; killing at 50 µM (adult S. japonicum; Schistosoma japonicum, 50 μM, 72 h, read-out: Killing activity 72hr): 100%
